Laboratory results reported in PubChem BioAssay AID1259407 (Chemical Carcinogenesis Research Information System (CCRIS), 2018).
Activity calls are given as the source filed them. No rule for the calls is given here.

Test system: CCRIS mutagenicity, Ames/micronucleus/aberration tests
Assay: CCRIS mutagenicity studies
[1] = Test System: AMES SALMONELLA TYPHIMURIUM, Strain/Indicator: TA98, Metabolic Activation: NONE, Method: STANDARD PLATE
[2] = Test System: AMES SALMONELLA TYPHIMURIUM, Strain/Indicator: TA98, Metabolic Activation: RAT, LIVER, S-9, AROCLOR 1254, Method: STANDARD PLATE
[3] = Test System: AMES SALMONELLA TYPHIMURIUM, Strain/Indicator: TA100, Metabolic Activation: NONE, Method: STANDARD PLATE
[4] = Test System: AMES SALMONELLA TYPHIMURIUM, Strain/Indicator: TA100, Metabolic Activation: RAT, LIVER, S-9, AROCLOR 1254, Method: STANDARD PLATE
[5] = Test System: AMES SALMONELLA TYPHIMURIUM, Strain/Indicator: TA1535, Metabolic Activation: NONE, Method: STANDARD PLATE
[6] = Test System: AMES SALMONELLA TYPHIMURIUM, Strain/Indicator: TA1537, Metabolic Activation: NONE, Method: STANDARD PLATE
[7] = Test System: AMES SALMONELLA TYPHIMURIUM, Strain/Indicator: TA1538, Metabolic Activation: NONE, Method: STANDARD PLATE

## CCN(CCC#N)c1cc(NC(C)=O)c(-n2nc3c(Br)cc(N)c(Cl)c3n2)cc1OC
Test System: AMES SALMONELLA TYPHIMURIUM, Strain/Indicator: TA98, Metabolic Activation: RAT LIVER S-9, AROCLOR 1254, Method: STANDARD PLATE
  mutagenic call: active; positive
Test System: AMES SALMONELLA TYPHIMURIUM, Strain/Indicator: TA100, Metabolic Activation: RAT LIVER S-9, AROCLOR 1254, Method: STANDARD PLATE
  mutagenic call: active; positive
Test System: AMES SALMONELLA TYPHIMURIUM, Strain/Indicator: TA104, Metabolic Activation: RAT LIVER S-9, AROCLOR 1254, Method: STANDARD PLATE
  mutagenic call: active; positive
Test System: AMES SALMONELLA TYPHIMURIUM, Strain/Indicator: YG1024, Metabolic Activation: RAT LIVER S-9, PHENOBARBITAL, 5,6-BENZOFLAVONE (10%), Method: PREINCUBATION
  mutagenic call: active; positive

## CC(O)CCC(=O)c1ccoc1 (stereo not given)
Test System: AMES SALMONELLA TYPHIMURIUM, Strain/Indicator: TA98, Metabolic Activation: HAMSTER, LIVER, S-9, AROCLOR 1254, Method: STANDARD PLATE
  mutagenic call: inactive; negative
[1]
  mutagenic call: inactive; negative
[2]
  mutagenic call: inactive; negative
Test System: AMES SALMONELLA TYPHIMURIUM, Strain/Indicator: TA100, Metabolic Activation: HAMSTER, LIVER, S-9, AROCLOR 1254, Method: STANDARD PLATE
  mutagenic call: inactive; negative
[3]
  mutagenic call: inactive; negative
[4]
  mutagenic call: inactive; negative
Test System: AMES SALMONELLA TYPHIMURIUM, Strain/Indicator: TA1535, Metabolic Activation: HAMSTER, LIVER, S-9, AROCLOR 1254, Method: STANDARD PLATE
  mutagenic call: inactive; negative
[5]
  mutagenic call: inactive; negative
Test System: AMES SALMONELLA TYPHIMURIUM, Strain/Indicator: TA1535, Metabolic Activation: RAT, LIVER, S-9, AROCLOR 1254, Method: STANDARD PLATE
  mutagenic call: inactive; negative
Test System: AMES SALMONELLA TYPHIMURIUM, Strain/Indicator: TA1537, Metabolic Activation: HAMSTER, LIVER, S-9, AROCLOR 1254, Method: STANDARD PLATE
  mutagenic call: inactive; negative
[6]
  mutagenic call: inactive; negative
Test System: AMES SALMONELLA TYPHIMURIUM, Strain/Indicator: TA1537, Metabolic Activation: RAT, LIVER, S-9, AROCLOR 1254, Method: STANDARD PLATE
  mutagenic call: inactive; negative
Test System: AMES SALMONELLA TYPHIMURIUM, Strain/Indicator: TA1538, Metabolic Activation: HAMSTER, LIVER, S-9, AROCLOR 1254, Method: STANDARD PLATE
  mutagenic call: inactive; negative
[7]
  mutagenic call: inactive; negative
Test System: AMES SALMONELLA TYPHIMURIUM, Strain/Indicator: TA1538, Metabolic Activation: RAT, LIVER, S-9, AROCLOR 1254, Method: STANDARD PLATE
  mutagenic call: inactive; negative

## C=CCCCCCCCCC
Test System: AMES SALMONELLA TYPHIMURIUM, Strain/Indicator: TA98, Metabolic Activation: MOUSE, LIVER, S-9, Method: STANDARD PLATE
  mutagenic call: inactive; negative
[1]
  mutagenic call: inactive; negative
Test System: AMES SALMONELLA TYPHIMURIUM, Strain/Indicator: TA100, Metabolic Activation: MOUSE, LIVER, S-9, Method: STANDARD PLATE
  mutagenic call: inactive; negative
[3]
  mutagenic call: inactive; negative
[5]
  mutagenic call: inactive; negative
[7]
  mutagenic call: inactive; negative

## COc1cccc2cccnc12
Test System: AMES SALMONELLA TYPHIMURIUM, Strain/Indicator: TA100, Metabolic Activation: S-9, Method: PREINCUBATION
  mutagenic call: inactive; negative

## CC(C)NCC1CCc2cc(CO)c([N+](=O)[O-])cc2N1 (stereo not given)
[1]
  mutagenic call: active; positive
Test System: AMES SALMONELLA TYPHIMURIUM, Strain/Indicator: TA98, Metabolic Activation: RAT, LIVER, S-9, AROCLOR 1254 OR PHENOBARBITOL, Method: STANDARD PLATE
  mutagenic call: active; positive
Test System: AMES SALMONELLA TYPHIMURIUM, Strain/Indicator: TA100(FR1), Metabolic Activation: NONE, Method: STANDARD PLATE
  mutagenic call: inactive; negative
Test System: AMES SALMONELLA TYPHIMURIUM, Strain/Indicator: TA100(FR1), Metabolic Activation: RAT, LIVER, S-9, PHENOBARBITAL AND 3-METHYLCHOLANTHRENE, Method: STANDARD PLATE
  mutagenic call: inactive; negative
Test System: AMES SALMONELLA TYPHIMURIUM, Strain/Indicator: TA100, Metabolic Activation: RAT, LIVER, S-9, AROCLOR 1254 OR PHENOBARBITOL, Method: STANDARD PLATE
  mutagenic call: active; positive
Test System: AMES SALMONELLA TYPHIMURIUM, Strain/Indicator: TA100, Metabolic Activation: RAT, LIVER, S-9, PHENOBARBITAL AND 3-METHYLCHOLANTHRENE, Method: STANDARD PLATE
  mutagenic call: inactive; negative
[5]
  mutagenic call: inactive; negative
Test System: AMES SALMONELLA TYPHIMURIUM, Strain/Indicator: TA1535, Metabolic Activation: RAT, LIVER, S-9, AROCLOR 1254 OR PHENOBARBITOL, Method: STANDARD PLATE
  mutagenic call: inactive; negative
[6]
  mutagenic call: inactive; negative
Test System: AMES SALMONELLA TYPHIMURIUM, Strain/Indicator: TA1537, Metabolic Activation: RAT, LIVER, S-9, AROCLOR 1254 OR PHENOBARBITOL, Method: STANDARD PLATE
  mutagenic call: inactive; negative
[7]
  mutagenic call: inactive; negative
Test System: AMES SALMONELLA TYPHIMURIUM, Strain/Indicator: TA1538, Metabolic Activation: RAT, LIVER, S-9, AROCLOR 1254 OR PHENOBARBITOL, Method: STANDARD PLATE
  mutagenic call: inactive; negative
Test System: CHINESE HAMSTER V-79, Strain/Indicator: V-79/6-THIOGUANINE, Metabolic Activation: NONE
  mutagenic call: active; positive
Test System: CHINESE HAMSTER V-79, Strain/Indicator: V-79/6-THIOGUANINE, Metabolic Activation: RAT, LIVER, HEPATOCYTES
  mutagenic call: active; positive
Test System: CHINESE HAMSTER V-79, Strain/Indicator: V-79/OUABAIN, Metabolic Activation: NONE
  mutagenic call: active; positive
Test System: CHINESE HAMSTER V-79, Strain/Indicator: V-79/OUABAIN, Metabolic Activation: RAT, LIVER, HEPATOCYTES
  mutagenic call: active; positive

## c1cc2ccc3ccnc4ccc(c1)c2c34
[1]
  mutagenic call: active; positive
[2]
  mutagenic call: active; positive
[3]
  mutagenic call: inactive; negative
[4]
  mutagenic call: active; positive

## O=[N+]([O-])c1cc2[nH]c3cc([N+](=O)[O-])c4ccccc4c3c2c2ccccc12
[1]
  mutagenic call: active; positive
Test System: AMES SALMONELLA TYPHIMURIUM, Strain/Indicator: TA98, Metabolic Activation: RAT, LIVER, S-9, 3-METHYLCHOLANTHRENE, Method: STANDARD PLATE
  mutagenic call: active; positive
[3]
  mutagenic call: active; positive
Test System: AMES SALMONELLA TYPHIMURIUM, Strain/Indicator: TA100, Metabolic Activation: RAT, LIVER, S-9, 3-METHYLCHOLANTHRENE, Method: STANDARD PLATE
  mutagenic call: active; positive

## CC(O)CC(C)(C)O (stereo not given)
Test System: Ames Salmonella typhimurium, Strain/Indicator: TA98, Metabolic Activation: None, Method: Preincubation
  mutagenic call: inactive; negative
Test System: Ames Salmonella typhimurium, Strain/Indicator: TA98, Metabolic Activation: Rat, Liver, S9, Sodium phenobarbital and 5,6-benzoflavone (10%), Method: Preincubation
  mutagenic call: inactive; negative
Test System: Ames Salmonella typhimurium, Strain/Indicator: TA100, Metabolic Activation: None, Method: Preincubation
  mutagenic call: inactive; negative
Test System: Ames Salmonella typhimurium, Strain/Indicator: TA100, Metabolic Activation: Rat, Liver, S9, Sodium phenobarbital and 5,6-benzoflavone (10%), Method: Preincubation
  mutagenic call: inactive; negative
Test System: Ames Salmonella typhimurium, Strain/Indicator: TA1535, Metabolic Activation: None, Method: Preincubation
  mutagenic call: inactive; negative
Test System: Ames Salmonella typhimurium, Strain/Indicator: TA1535, Metabolic Activation: Rat, Liver, S9, Sodium phenobarbital and 5,6-benzoflavone (10%), Method: Preincubation
  mutagenic call: inactive; negative
Test System: Ames Salmonella typhimurium, Strain/Indicator: TA1537, Metabolic Activation: None, Method: Preincubation
  mutagenic call: inactive; negative
Test System: Ames Salmonella typhimurium, Strain/Indicator: TA1537, Metabolic Activation: Rat, Liver, S9, Sodium phenobarbital and 5,6-benzoflavone (10%), Method: Preincubation
  mutagenic call: inactive; negative
Test System: E. coli, Strain/Indicator: WP2uvrA/pKM101, Metabolic Activation: None, Method: Preincubation
  mutagenic call: inactive; negative
Test System: E. coli, Strain/Indicator: WP2uvrA/pKM101, Metabolic Activation: Rat, Liver, S9, Sodium Phenobarbital and 5,6-benzoflavone (10%), Method: Preincubation
  mutagenic call: inactive; negative
